This note sets out measurements from PMC9317670, “Temporal and Wash-Out Studies Identify Medicines for Malaria Venture Pathogen Box Compounds with Fast-Acting Activity against Both Trypanosoma cruzi and Trypanosoma brucei” (Microorganisms, 2022).

Experiment [1] concerns T.b. brucei bloodstream 427 strain parasites. Kind of experiment: T.b. brucei 72 h REDOX-based (resazurin) viability assay. The following applies: for SI (T.b. brucei) HEK: selectivity index in relation to HEK293 cells; for SI (T.b. brucei) (HEP): selectivity index in relation to HEPG2 cells. The experiment is classed as cell-based, Trypanosoma brucei brucei.
In experiment [2] the test system is T. cruzi Tulahuen strain parasites in 3T3 host cells. Briefly: T. cruzi 48 h image-based assay. The experiment is classed as cell-based, Trypanosoma cruzi. The following applies: for Emax % (T. cruzi) / IC50 / Emax: 48 h; for IC50: read-out: IC50 (T. cruzi); for SI (T. cruzi) 3T3: selectivity index in relation to 3T3 host cells, highest dose 3T3 73 µM; for SI (T. cruzi) HEK: selectivity index in relation to HEK293 cells; for SI (T. cruzi) (HEP): selectivity index in relation to HEPG2 cells; for Emax: read-out: Emax % (T. cruzi) (converted).

The next experiment deals with HEK293 cells. Briefly: HEK293 cytotoxicity assay. The experiment is classed as cell-based, human. The following applies: HEK293, 72 h; NA = not active; highest dose 79 µM unless given.
The subject of experiment [3] is T. cruzi. Briefly: T. cruzi compound wash off assay (48 h with compound, wash off, 72 h without). The experiment is classed as cell-based, Trypanosoma cruzi. The following applies: T. cruzi; for IC50: read-out: IC50 Wash Off; for Fold Change of IC50, wash off vs 48 h: IC50 from 48 h incubation to IC50 following wash off and further 72 h.
Experiment [4] concerns T.b. brucei. Briefly: T.b. brucei temporal viability (time-kill) assay, 24 h, PrestoBlue. The following applies: for IC50: read-out: IC50 24 h T.b. brucei. The experiment is classed as cell-based, Trypanosoma brucei brucei. On the procedure:
Time-kill assays was undertaken as previously described, using the REDOX reagent PrestoBlue® [24]. […] Control compounds were added at the same concentrations at outlined for the resazurin-based assays.

Experiment [5] deals with T.b. brucei. Kind of experiment: T.b. brucei temporal viability (time-kill) assay, 48 h, PrestoBlue. The experiment is classed as cell-based, Trypanosoma brucei brucei. The following applies: for IC50: read-out: IC50 48 h T.b. brucei.
In the next experiment the test system is T. cruzi and T.b. brucei. Kind of experiment: Speed of action and cidality classification from temporal and wash off assays. The following applies: for Speed of Action (FA/SA): TBB = T.b. brucei. The experiment is classed as cell-based, Trypanosoma cruzi, Trypanosoma brucei brucei.
The test system of experiment [6] is T. cruzi. Kind of experiment: T. cruzi temporal image-based assay, 24 h exposure. The experiment is classed as cell-based, Trypanosoma cruzi. The following applies: for IC50: read-out: IC50 24 h T. cruzi.
Setting [7] is: 48 h incubation, wash off, further 72 h.
The mark [8] stands for this setting: Trypanosoma cruzi, NA = not active at given concentration.
Setting [9] is: Trypanosoma cruzi, 48 h incubation, wash off, further 72 h.

Where two headings read alike, the source gives them in different places. Some results are limits rather than exact numbers.

As for `c1ccc(Oc2ccc(-c3cc(N4CCNCC4)[nH]n3)cc2)cc1` [MMV 687706], in experiment [1] (72 h), the “Emax % (T.b. brucei)” value stood at 99% and the IC50 is 2.2 ± 0.0028 µM. Also, in experiment [1], the “SI (T.b. brucei) HEK” value was found to be 7.4. Also, in experiment [2], the “Emax % (T. cruzi)” value was found to be 99%, the IC50 amounted to 11 ± 0.205 µM, the “SI (T. cruzi) 3T3” value is given as over 6.6 and the “SI (T. cruzi) HEK” value is recorded as 1.5 (NT). For the same compound, in the experiment on HEK293 cells, the IC50 is 16.2 ± 5.2 µM.

With `CN1CCN(S(=O)(=O)c2ccc(-c3ccc4c(Nc5ncc(Cl)cn5)ccnc4c3)cc2)CC1` [MMV 688283], in experiment [1] (72 h), the “Emax % (T.b. brucei)” value stood at 99% and it took 7.6 ± 0.27 µM to reach half-maximal inhibition (IC50). In addition, in experiment [1], the “SI (T.b. brucei) HEK” value is recorded as >10 (>10) and the “SI (T.b. brucei) (HEP)” value is reported as >10 (>10). Also, in experiment [2], the “Emax % (T. cruzi)” value is on record as 100%, the IC50 was 6.6 ± 1.2 µM, the “SI (T. cruzi) 3T3” value is on record as over 11 and the “SI (T. cruzi) HEK” value is given as >12 (>12). The “SI (T. cruzi) (HEP)” value in experiment [2] is listed as >12 (>12). For the same compound, the “Emax % (T. cruzi)” value in experiment [2] (listed as MMV688283) is given as over 95%. Also, in the experiment with T. cruzi [3] (setting [7]), the “Emax Wash Off” value was found to be 100% and the IC50 was found to be 7.6 ± 1.5 µM. The “Fold Change of IC50, wash off vs 48 h” value in the experiment with T. cruzi [3] came to 1.2 fold. Moreover, in the experiment with T.b. brucei [4], the “Emax 24 h T.b. brucei” value is 94% and the IC50 came to 7.8 ± 0.32 µM. Further, in the experiment with T.b. brucei [5], the “Emax 48 h T.b. brucei” value was found to be 96% and the IC50 stood at 6.2 ± 0.45 µM. Moreover, in the experiment with T. cruzi and T.b. brucei (TC = T. cruzi), the “Speed of Action (FA/SA)” value is “SA (TC)”.

On to `N=C(N)c1ccc(-c2cc(-c3ccccc3)on2)cc1` [MMV 688514], for which, in experiment [1] (72 h), the “Emax % (T.b. brucei)” value is reported as 99% and the IC50 turned out to be 1.5 ± 0.027 µM. Besides, the “SI (T.b. brucei) HEK” value in experiment [1] is 6.0. The “SI (T.b. brucei) HEK” value in experiment [1] (listed as MMV688514) was under 10. Moreover, in experiment [2], the “Emax % (T. cruzi)” value was found to be 100%, the IC50 is 4.9 ± 0.16 µM, the “SI (T. cruzi) 3T3” value came out at 2.7 and the “SI (T. cruzi) HEK” value was 1.9 (NT). For the same compound, in experiment [2] (listed as MMV688514), the “SI (T. cruzi) HEK” value is under 10. The compound also registered an IC50 in the experiment on HEK293 cells of 9.1 ± 0.46 µM.

As for `CC1CCCCN1C(=O)NCCc1coc(-c2ccc(F)cc2)n1` (centres unmarked) [MMV 688797], the Emax is 99% in experiment [1] (Trypanosoma brucei, 72 h); 100% in experiment [2] (Trypanosoma cruzi, TULAHUEN); 86% in the experiment with T. cruzi [6] (Trypanosoma cruzi); 99% in the experiment with T.b. brucei [4] (Trypanosoma brucei, read-out: Emax 24 h T.b. brucei (converted)); 99% in the experiment with T.b. brucei [5] (Trypanosoma brucei, read-out: Emax 48 h T.b. brucei (converted)). Further, the IC50 came to 0.097 ± 0.0021 µM in experiment [1] (Trypanosoma brucei, 72 h); 0.51 ± 0.11 µM in experiment [2] (Trypanosoma cruzi, TULAHUEN); 0.89 ± 0.135 µM in the experiment on T. cruzi [6] (setting [8]); 0.38 ± 0.056 µM with T. cruzi [3] (setting [9]); 0.15 ± 0.029 µM with T.b. brucei [4] (Trypanosoma brucei); 0.1 ± 0.0062 µM with T.b. brucei [5] (Trypanosoma brucei). Besides, the “SI (T.b. brucei) HEK” value in experiment [1] is >814 (>814). In experiment [1], the “SI (T.b. brucei) (HEP)” value is given as >814 (>814). The “SI (T. cruzi) 3T3” value in experiment [2] was over 143. The “SI (T. cruzi) HEK” value in experiment [2] was >154 (>154). Also, in experiment [2], the “SI (T. cruzi) (HEP)” value is on record as >154 (>154). Moreover, the “Speed of Action (FA/SA)” value with T. cruzi and T.b. brucei (TC = T. cruzi) is given as “FA (Fast-acting (FA) = IC50 value can be determined following 24 h incubation, <10-fold difference in the IC50 value from 24 to 72 h)”. Moreover, the “Speed of Action (Table 5)” value in the experiment on T. cruzi and T.b. brucei (prioritised compounds, Fast/Slow) was “Fast”.

In the case of `CC1CS(=O)(=O)CCN1/N=C/c1ccc([N+](=O)[O-])o1` (centres unmarked) [Nifurtimox, reference compound], the Emax in experiment [2] (Trypanosoma cruzi, TULAHUEN) is 100%. The IC50 in experiment [2] (Trypanosoma cruzi, TULAHUEN) came out at 0.85 ± 0.048 µM; with T. cruzi [6] (setting [8]) it was 1.03 ± 0.076 µM; with T. cruzi [3] (setting [9]) it was 0.35 ± 0.014 µM. In experiment [2], the “SI (T. cruzi) 3T3” value was over 149. The “Fold Change of IC50, wash off vs 48 h” value with T. cruzi [3] was 0.60 fold. Besides, the “Speed of Action (FA/SA)” value with T. cruzi and T.b. brucei (TC = T. cruzi) is given as “FA (Fast-acting (FA) = IC50 value can be determined following 24 h incubation, <10-fold difference in the IC50 value from 24 to 72 h)”.

On to `CC[C@@H]([C@H](C)O)n1ncn(-c2ccc(N3CCN(c4ccc(OC[C@@H]5CO[C@@](Cn6cncn6)(c6ccc(F)cc6F)C5)cc4)CC3)cc2)c1=O` [Posaconazole, reference compound], for which, in experiment [2], the “Emax % (T. cruzi)” value was 77% and the “SI (T. cruzi) 3T3” value was over 333. In addition, in experiment [2] (Trypanosoma cruzi, TULAHUEN), the Emax is 73% and the IC50 is 0.0055 ± 4.1e-06 µM. Moreover, in the experiment on T. cruzi [6] (NA = not active at given concentration), the “IC50 24 h T. cruzi” value is “NA at 1 µM”. In the experiment on T. cruzi [3], the “Fold Change of IC50, wash off vs 48 h” value came to 0.36 fold. In addition, in the experiment with T. cruzi [3] (setting [9]), the Emax was 100% and the IC50 amounted to 0.0018 ± 7.8e-05 µM. Further, in the experiment with T. cruzi and T.b. brucei (TC = T. cruzi), the “Speed of Action (FA/SA)” value is “SA (Slow-acting (SA) = IC50 value unable to be determined following 24 h incubation (no plateau of activity, or plateau of activity is <80% or IC50 value < 10 µM), or >10-fold difference in the IC50 value from 24 to 72 h)”. The “Cidal / Static / Not efficacious” value in the experiment with T. cruzi and T.b. brucei (from wash off and 48 h Emax, TC = T. cruzi) is on record as “Not efficacious (TC)”.
